Assay in all cases: ABPP chemical proteomics (LC-MS/MS) in HEK293T cells
What all share (assay type): cell-based

One assay concerns the target T1, USP30 (Homo sapiens, UniProt Q70CQ3).
T1 construct: We next determined cellular engagement of endogenous USP30 with IMP-2587 or IMP-2586; endogenous in cells; host or cells: HEK293T
T1 sequence (Q70CQ3 1-517): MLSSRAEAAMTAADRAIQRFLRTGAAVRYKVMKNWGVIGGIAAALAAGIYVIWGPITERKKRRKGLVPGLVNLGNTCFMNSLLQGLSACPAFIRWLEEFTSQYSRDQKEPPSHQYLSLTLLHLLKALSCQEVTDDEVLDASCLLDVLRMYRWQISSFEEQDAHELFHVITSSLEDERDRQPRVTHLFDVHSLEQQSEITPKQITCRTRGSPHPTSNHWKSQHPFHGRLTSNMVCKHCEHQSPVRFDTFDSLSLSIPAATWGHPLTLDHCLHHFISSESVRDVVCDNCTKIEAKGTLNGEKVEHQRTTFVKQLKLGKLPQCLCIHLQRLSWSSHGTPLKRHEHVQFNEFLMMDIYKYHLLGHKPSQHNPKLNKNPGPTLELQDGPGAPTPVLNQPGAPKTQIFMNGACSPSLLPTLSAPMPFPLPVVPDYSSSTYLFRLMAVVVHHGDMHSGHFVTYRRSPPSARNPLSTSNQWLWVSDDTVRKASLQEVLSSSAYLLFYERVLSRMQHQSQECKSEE
As to conditions: for probe concentration for detection of USP30 activity in intact cells: 10 min incubation; for Difference (log2 fold change of enrichment): USP30. As for the experimental part: (§1) To explore the selectivity of IMP-2587 and IMP-2586 across the whole proteome, we performed quantitative activity-based protein profiling (ABPP) in HEK293T cells following treatment with IMP-2587 or IMP-2586 (Fig. 3a). After ABP incubation, cells were lysed, and probe-labelled proteins were ligated to biotinylated capture reagents.[27] […] USP30 was outcompeted by corresponding parent inhibitors for each ABP (Fig. 5b and d and Tables S3 and S5, ESI ^†), confirming the high potency and rapid engagement of IMP-2587 and IMP-2586 in cells. […] DESI1 and DESI2 are small ubiquitin-related modifier (SUMO) proteases,[3,29–32] and IMP-2587 and IMP-2586 may offer a starting point for future development of DESI ABPs. […]
(§2) d) Live cell probe incubation, lysate click chemistry and precipitation 6-well HEK293T cells were incubated with media containing compounds ABP 2 and ABP 4 at indicated concentrations for 1 h at 37 °C. The cells were washed with PBS and lysed with lysis buffer (50 μL (1% (v/v) Triton X-100, 0.1% (w/v) sodium dodecyl sulfate (SDS), EDTA-free complete protease inhibitor cocktail (1×, Roche) in PBS on ice for 10 min. The lysates were scraped and transferred to corresponding Lo-Bind Eppendorfs. Each lysate was sonicated for 1 minute, and the samples centrifuges at 5,000 x g at 4 °C for 5 minutes to pellet insoluble cellular debris. The supernatant was collected, and protein concentration was determined using the DC Protein Assay (Bio-Rad) as per manufacturer’s instructions, and normalised to lowest concentrated sample (e.g. 1 mg/mL, using lysis buffer). The following “click mixture” was prepared separately, preparing 6 μL for every 100 μL of […]
(§3) Capture reagent (AzRB/AzT for ABP 2, YnT/YnB for ABP 4 10 mM in DMSO, 1 vol; final concentration […]
(§4) CuSO4 (50 mM in water, 2 vol; final concentration in reaction 1 mM)
(§5) TCEP (50 mM in water, 2 vol; final concentration in reaction 1 mM)
(§6) TBTA (10 mM in DMSO, 1 vol; final concentration in reaction 100 µM)
(§7) The click mixture was vortexed and incubated at room temperature for 2 min before 6 μL of the mixture was added to every 100 μL of lysate. The reaction mixtures were shaken at room temperature for 1 h before being quenched with EDTA (500 mM in H2O) to a final concentration of 10 mM.
(§8) Proteins were precipitated by adding H2O (1 vol), MeOH (2 vol) and CHCl3 (0.5 vol), vortexing briefly then centrifuging at 17,000 × g for 5 min. The top H2O/MeOH layer was discarded and the middle layer of protein pellet and lower CHCl3 layer retained. The suspension was washed with MeOH (300 μL), and sonicated to break up the pellet. The proteins were pelleted by centrifugation at 10,000–17000 × g for 5–10 min or until a compact pellet was formed. The protein pellet was washed once more with MeOH (1 mL). The pellet was resuspended by sonicating and completely dissolving in 1% (w/v) SDS in PBS (to 5 mg/mL protein) before being made up to 1 mg/mL protein with PBS. […]
(§9) f) Neutravidin biotin enrichment (Affinity pull-down)
(§10) Click chemistry and precipitation steps were carried out as described in section 3.2.d, on at least 400ug of protein per sample. The pellet was resuspended by sonicating and completely dissolving in 1% (w/v) SDS in HEPES 50 mM pH 8.0, before being made up to 1 mg/mL protein with HEPES 50 mM pH 8.0 to […]
(§11) achieve a final concentration of 0.2% SDS. 20uL of each samples was collected as TL (Total lysate) samples. Pull down of biotinylated proteins was achieved by incubating samples with pre-equilibrated (3x 1 mL washes with 0.2% (w/v) SDS in HEPES 50 mM pH 8 buffer) Pierce™ NeutrAvidin™ Agarose beads for 3 hours at room temperature. NeutrAvidin™ Agarose beads were used in ratio of 1 μL bead resin per 10ug of protein sample. The beads were subsequently washed by moderate shaking for 10 seconds then briefly pelleting by table-top centrifuge then vacuum aspirating the supernatant with fine-end pipette tips (to not disturb the agarose) after collecting 20 µL supernatant as SN (supernatant […]
(§12) ) samples. […]

Another assay deals with T2, DESI2 (Homo sapiens, UniProt Q9BSY9).
T2 construct: endogenous in cells; host or cells: HEK293T
The protocol: as §1, §2, §3, §4, §5, §6, §7, §8, §9, §10, §11, §12

Another assay has as its target T3, C21orf33 (Homo sapiens, UniProt P0DPI2).
T3 construct: endogenous in cells; host or cells: HEK293T
T3 sequence (P0DPI2 42-268): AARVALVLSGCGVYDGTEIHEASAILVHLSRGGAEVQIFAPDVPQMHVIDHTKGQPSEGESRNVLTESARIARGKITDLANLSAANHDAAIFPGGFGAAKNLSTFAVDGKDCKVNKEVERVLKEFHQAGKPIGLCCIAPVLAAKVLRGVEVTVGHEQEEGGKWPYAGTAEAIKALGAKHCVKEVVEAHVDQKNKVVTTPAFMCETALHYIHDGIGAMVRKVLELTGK
The protocol:
as §1, §2, §3, §4, §5, §6, §7, §8, §9, §10, §11, §12

The mark [1] stands for this setting: IMP-2586 labelling vs DMSO, 30 nM, 10 min, HEK293T (Table S4, Fig.5c).
Where [2] appears, read: IMP-2587 labelling vs DMSO, 30 nM, 10 min, HEK293T (Table S2, Fig.5a).
Where [3] appears, read: compound 1 out-competition with IMP-2587 labelling, HEK293T (Table S3, Fig.5b).
Where [4] appears, read: compound 3 out-competition with IMP-2586 labelling, HEK293T (Table S5, Fig.5d).

The structures appear in SMILES notation.

T2 sequence (Q9BSY9 whole entry): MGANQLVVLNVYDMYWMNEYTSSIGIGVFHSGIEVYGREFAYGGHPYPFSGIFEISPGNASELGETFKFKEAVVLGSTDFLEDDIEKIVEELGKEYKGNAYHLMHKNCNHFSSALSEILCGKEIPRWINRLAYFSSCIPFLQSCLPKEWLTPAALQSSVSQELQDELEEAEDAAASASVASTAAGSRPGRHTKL

On to `N#CN1CC[C@@H](NC(=O)c2cc(-c3ccccc3Oc3ccc(N=[N+]=[N-])cc3)n[nH]2)C1` [IMP-2586], for which the “probe concentration for detection of USP30 activity in intact cells” value at USP30 is reported as 30 nM. The results for the “Difference (log2 fold change of enrichment)” value on USP30 (setting [1]), on DESI2 (setting [1]) and on C21orf33 (setting [1]) were 4.80, 3.40 and 3.93, respectively.

With `C#Cc1cccc(-c2cc(NC(=O)CC3CCN(C#N)C3)on2)c1` (stereo not drawn) [IMP-2587], at USP30, the “probe concentration for detection of USP30 activity in intact cells” value is 30 nM. Further, the “Difference (log2 fold change of enrichment)” value on DESI2 (setting [2]) was 2.02; at C21orf33 (setting [2]), 0.92.

Regarding `N#CN1CC[C@H](CC(=O)Nc2cc(-c3cccc(Cl)c3)no2)C1` [compound 1, reference compound], the “Difference (log2 fold change of enrichment)” value on USP30 (setting [3]) was -1.82; at DESI2 (setting [3]), -1.75.

Consider `N#CN1CC[C@@H](NC(=O)c2cc(-c3ccccc3Oc3ccccc3)n[nH]2)C1` [compound 3, reference compound], for which the “Difference (log2 fold change of enrichment)” value is listed as -4.18 at USP30 (setting [4]), -3.13 at DESI2 (setting [4]) and -3.65 at C21orf33 (setting [4]).

Values taken from paper PMC11078216, “Discovery of potent and selective activity-based probes (ABPs) for the deubiquitinating enzyme USP30” (RSC Chemical Biology, 2024).
